The subject of one experiment is MG-63 (osteosarcoma). As to the kind of experiment: MTT cytotoxicity assay, MG-63. As to conditions: 72 h, mean, SD in next cell. It counts as cell-based. How it is done:
(§1) The human epithelial ovarian cancer A2780 cell line and its cisplatin-resistant clone A2780cis were obtained from Sigma-Aldrich (Milano, Italy). A2780cis cells were continuously exposed to 1 μM cisplatin to maintain cisplatin resistance. A549 cells (Human non-small cell lung cancer), MCF7 (metastatic breast cancer), PC3 (highly aggressive metastatic prostate cancer), and MG63 (osteosarcoma) were obtained from the American Type Culture Collection (ATCC). Cells were authenticated in laboratory using the PowerPlex 16 HS System. A2780, A2780cis, and PC3 cells were cultured in RPMI-1640 medium; MG63 and MCF7 cells were cultured in DMEM, and A549 cells were cultured in F12 NUT-MIX. The culture medium contained about 10% fetal bovine serum (FBS) (Gibco, Thermo Fisher Scientific, Monza, Italy), about 1% (v/v) of penicillin (10,000 units/mL)-streptomycin (10 mg/mL), and about 1% (v/v) L-glutamine (200 mM) (all from Sigma-Aldrich). Cells were cultured at 37° C. in a 5% CO2, fully humidified atmosphere.
2.5×10^3 (PC3, MG63, MCF7) or 4.0×10^3 (A2780, A2780cis, A549) cells were seeded in 96-well microplates in 100 μL culture medium. Cells, allowed to adhere for 24 h, were then treated in triplicate with increasing concentrations of gold compounds. Cisplatin was included as a reference drug. Cell viability was evaluated using 3-(4,5-dimethylthiazol-2-yl)-2,5-diphenyltetrazolium bromide (MTT) assay (Sigma-Aldrich) after 72 h of treatment. Half maximal inhibitory concentrations (IC50), IC25, and IC75 were calculated using the CalcuSyn software version 2 (Biosoft, Ferguson, MO, USA) (See: Chou, T. C.; Talalay, P. Quantitative Analysis of Dose-Effect Relationships: The Combined Effects of Multiple Drugs or Enzyme Inhibitors. Adv. Enzyme Regul. 1984, 22, 27-55, which is incorporated herein by reference in its entirety). Fold resistance was calculated as the ratio of the IC50 of the A2780cis to that of the parental cell line A2780. […]

For experiment [1], the system named is A2780 ovarian cancer cells. As to the kind of experiment: MTT cytotoxicity assay, A2780. It counts as cell-based, human. Conditions: 72 h, mean (SD). How it is done:
as §1
2.5×10^3 (PC3, MG63, MCF7) or 4.0×10^3 (A2780, A2780cis, A549) cells were seeded in 96-well microplates in 100 μL culture medium. Cells, allowed to adhere for 24 h, were then treated in triplicate with increasing concentrations of gold compounds. Cisplatin was included as a reference drug. Cell viability was evaluated using 3-(4,5-dimethylthiazol-2-yl)-2,5-diphenyltetrazolium bromide (MTT) assay (Sigma-Aldrich) after 72 h of treatment. Half maximal inhibitory concentrations (IC50), IC25, and IC75 were calculated using the CalcuSyn software version 2 (Biosoft, Ferguson, MO, USA) (See: Chou, T. C.; Talalay, P. Quantitative Analysis of Dose-Effect Relationships: The Combined Effects of Multiple Drugs or Enzyme Inhibitors. Adv. Enzyme Regul. 1984, 22, 27-55, which is incorporated herein by reference in its entirety). Fold resistance was calculated as the ratio of the IC50 of the A2780cis to that of the parental cell line A2780. Alternatively, cell viability was assayed by crystal violet staining (See: Feoktistova, M.; Geserick, P.; Leverkus, M. Crystal Violet Assay for Determining Viability of Cultured Cells. Cold Spring Harb Protoc 2016, 2016, pdb.prot087379, which is incorporated herein by reference in its entirety). Alternatively, after drug treatment, the culture Medium was removed, cells washed, fixed, and stained, and the Crystal Violet solution lasted 20 minutes (See: Sulaiman, A. A. A.; Casagrande, N.; Borghese, C.; Corona, G.; Isab, A. A.; Ahmad, S.; Aldinucci, D.; Altaf M. Design, Synthesis, and Preclinical Activity in Ovarian Cancer Models of New Phosphanegold(I)—N-Heterocyclic Carbene Complexes. J Med Chem 2022, 65, 14424-14440, which is incorporated herein by reference in its entirety).

Turning to `CC(C)c1cccc(C(C)C)c1-n1ccn(-c2c(C(C)C)cccc2C(C)C)[c]1=[Au-][P+](CCNCC[P+]([Au-]=[c]1n(-c2c(C(C)C)cccc2C(C)C)ccn1-c1c(C(C)C)cccc1C(C)C)(C1CCCCC1)C1CCCCC1)(C1CCCCC1)C1CCCCC1` [Complex 3, [(Au(IPr))2(C28H24P2)](PF6)2], the IC50 worked out at 160 nM with MG-63 (osteosarcoma) and 110 nM in experiment [1].

The values are drawn from patent publication US20250222009A1, “DINUCLEAR GOLD(I) COMPLEXES FOR TREATING CANCER” (KING FAHD UNIVERSITY OF PETROLEUM AND MINERALS, priority 2024, published 2025).
